# Results reported in patent US4939256A, “Novel platinum complex, antineoplastic agent containing the same, and intermediate therefor” (Kanebo Ltd., priority 1988, dated 1990).
# Experiments:
# [1] = system: Leukemia P388; experiment: Experiment 1: Test of antitumor activity (increase in life span of tumor-bearing mice); assay type: in vivo, BDF1 male mice; details: intraperitoneal, P388 in BDF1 mice; for Increase in life span (ILS %): observed until 30th day
# Experimental: (a) Animals: BDF1 male mice (6 week age, weighing 22 to 25 g, 4 animals per each group)
# (b) Tumor cells: Leukemia P388
# Tumor cells (1×10^6 per mouse) were intraperitoneally inoculated into mice. After 24 hours, a solution of each test compound in physiological saline solution was intraperitoneally administered to the mice. In control mice, only physiological saline solution was intraperitoneally administered.
# Survival days of the mice was observed until 30th day after the inoculation of tumor cells. Mean survival days (X) in the mice administered with test compound and mean survival days (Y) in the control mice were measured, and the increase in life span (ILS %) was calculated by the following equation: [formula]
# [2] = system: kidney; experiment: Experiment 3: Side effect on kidney (blood urea nitrogen value); assay type: in vivo, BDF1 male mice; details: intraperitoneal, 4th day after administration, versus control mice
# Experimental: It was studied in the blood urea nitrogen value (BUN value) as an index.
# (§1) (a) Animal: BDF1 male mice (6 week age, weighing 22-25 g, 5 animals per each group)
# Each test compound was dissolved in a physiological saline solution, and the solution (0.1 ml/10 g body weight) was intraperitoneally administered. In the control mice, only the physiological saline solution (0.1 ml/10 g body weight) was intraperitoneally administered. On the 4th day after the administration, the test compound-administered mice and the control mice were bleeded from the femoral artery, and the collected blood was centrifuged at 3,000 r.p.m. at 4° C. for 15 minutes to give a test serum. BUN value in the test serum was measured by a urease indophenol method using a kit for measuring urea nitrogen (Urea NB-Test Wako, manufactured by Wako Pure Chemical Industries, Ltd.). That is, the above test serum (20 μl) was taken in a test tube and thereto was added color reagent A [a mixture of a urease solution (one part by volume) and phosphate buffer (pH 7.0, 20 parts by volume), 2.0 ml], and the mixture was mixed well and incubated at 37° C. for 15 minutes. […]
# The absorbance of the standard solution and test solution was measured at 570 nm with a spectrophotometer with reference to the blank solution as a control, and BUN value in the test serum was calculated by the following equation: [formula] […]
# [3] = prior art, clinically used; cited from earlier work
# [4] = system: BDF1 male mice; experiment: Experiment 4: Acute toxicity (LD50); assay type: in vivo; details: intraperitoneal, until 14th day, Weil method
# Experimental: as §1
# Each test compound was dissolved or suspended in a physiological saline solution, and the solution or suspension (0.1 ml/10 g body weight) was intraperitoneally administered to mice. The number of mice that died was counted until 14th day after administration of test compound, and the acute toxicity (LD50) was calculated by Weil method.
# [5] = system: Cisplatin-resistant L1210 cells (L1210/DDP) and L1210 cells; experiment: Experiment 2: Effects on cisplatin-resistant tumor cells (growth inhibition, resistance index); assay type: cell-based; details: L1210/DDP versus L1210, from IC50 after 48 hours; for Resistance index, maximum: maximum of 2 to 4 tests; for Resistance index, Mean: mean of 2 to 4 tests; for Resistance index, minimum: minimum of 2 to 4 tests
# Experimental: 2. Cisplatin-resistant L1210 cells (hereinafter, referred to as L1210/DDP), which is available from Cancer Chemotherapy Center, Japanese Foundation for Cancer Research
# RPMI-1640 medium containing 10% (v/v) fetal bovine serum, which was prepared as follows:
# RPMI-1640 (manufactured by GIBCO) (10.4 g), sodium hydrogen carbonate (1.3 g), streptomycin sulfate ([…]), penicillin G potassium ([…]) and a 1% aqueous solution of β-mercaptoethanol (40 μl) were dissolved in distilled water (one liter). To this mixture (90 parts by volume) was added fetal bovine serum (manufactured by GIBCO) (10 parts by volume) to give RPMI-1640 medium containing 10% (v/v) fetal bovine serum (hereinafter, referred to as "serum-containing RPMI-1640 medium").
# L1210 cells or L1210/DDP cells were added to the serum-containing RPMI-1640 medium to prepare a cell suspension (3×10^5 cells/ml). The cell suspension (each 1 ml) was seeded onto a microplate (Falcon 3047, manufactured by Falcon) and cultivated in air containing 5% CO2 gas at 37° C. (one group, 3 wells). After cultivating for 24 hours, a solution of each test compound (1 ml) (which was prepared by dissolving each test compound in the serum-containing RPMI-1640 medium in various concentrations) was added to the medium, and the mixture was cultivated under the same conditions for 48 hours. After the cultivation, the number of viable cells was counted by Trypan Blue exclusion test method, and the mean number of viable cells in each group was calculated. Besides, in the control group, the above was repeated by using the serum-containing RPMI-1640 medium instead of the solution of test compound, and the mean number of viable cells in the control group was calculated likewise. From the mean number of viable cells in various concentration of test compound and the mean number of viable cells in the control group, the concentration required for 50% inhibition of growth (IC50) was calculated by probit method. Then, the resistance index of test compound was calculated by the following equation: [formula]
# The above test was repeated for 2 to 4 times, and the mean resistance index was obtained.
Compound,Increase in life span (ILS %) ([1]; 25 mg/kg),Increase in life span (ILS %) ([1]; 50 mg/kg),Increase in life span (ILS %) ([1]; 100 mg/kg),dose showing maximum increase in life span in Experiment 1 [1],other results
"O=C1C[O][Pt]2([NH]C3CC[N]2C3)[O]1 (racemic) [Platinum complex A-2, α-glycolato-(3RS)-3-aminopyrrolidine platinum (II)]",108%,172%,115%,50 mg/kg,–
"N.N.[Cl][Pt][Cl] [Cisplatin, cisdiamminedichloroplatinum (II), reference compound]",–,–,–,10 mg/kg,"Rate of change of BUN value (%) ([2]; 10 mg/kg): +106%; Rate of change of BUN value (%) ([2]; 15 mg/kg): +128%; antineoplastic activity, in words [3]: excellent antineoplastic activity; Increase in life span (ILS %) ([1]; 5 mg/kg): 108%; Increase in life span (ILS %) ([1]; 10 mg/kg): 167%; Increase in life span (ILS %) ([1]; 20 mg/kg): -11%"
a mixture of α-glycolato-(3RS)-3-aminopiperidine platinum (II) (Isomer b-1) and β-glycolato-(3RS)-3-aminopiperidine platinum (II) (Isomer b-2) [Platinum complex B-1],131%,174%,-45%,50 mg/kg,"LD50 [4]: 57.0 mg/kg; Resistance index, maximum [5]: 5.4; Resistance index, Mean [5]: 4.3; Resistance index, minimum [5]: 3.2"
a mixture of α-glycolato-(3RS)-3-aminopyrrolidine platinum (II) (Isomer a-1) and β-glycolato-(3RS)-3-aminopyrrolidine platinum (II) (Isomer a-2) [Platinum complex A-1],74%,167%,-43%,50 mg/kg,–
a mixture of α-glycolato-(3RS)-3-aminopyrrolidine platinum (II) (Isomer a-1) and β-glycolato-(3RS)-3-aminopyrrolidine platinum (II) (Isomer a-2) [Platinum complex A-3],111%,170%,26%,50 mg/kg,"LD50 ([4]; 20160 min): 107.0 mg/kg; Resistance index, maximum ([5]; 2880 min): 4.6; Resistance index, Mean ([5]; 2880 min): 4.6; Resistance index, minimum ([5]; 2880 min): 4.6"
